Measured values taken from paper PMC10593608, “The catalytic role of glutathione transferases in heterologous anthocyanin biosynthesis” (Nature Catalysis, 2023).

Legend:
AtTT19 [1] = biological target: T1, AtTT19 (Arabidopsis thaliana, UniProt Q9FE46); test: cyanidin formation by clarified E. coli lysate expressing the GST; type: biochemical; conditions: 20 μM GSH, 100 mM MOPSO pH 6.2, 30 °C
T1 construct: gene GSTF12; expressed in E. coli from pET-28b-based plasmid, clarified lysate
T1 sequence (Q9FE46 1-214): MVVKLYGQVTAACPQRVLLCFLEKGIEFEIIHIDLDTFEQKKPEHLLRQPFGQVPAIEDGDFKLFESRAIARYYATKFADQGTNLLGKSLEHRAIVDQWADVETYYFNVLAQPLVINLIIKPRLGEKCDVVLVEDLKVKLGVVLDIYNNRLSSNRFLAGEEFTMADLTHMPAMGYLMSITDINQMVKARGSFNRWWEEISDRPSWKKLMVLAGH

ZmBZ2 = biological target: T2, ZmBZ2 (Zea mays, UniProt P50472); test: GSH-transferase assay, A340nm, clarified E. coli lysate; type: biochemical; conditions: 1 mM CDNB, 1 mM GSH, 50 mM Tris pH 7.5, 30 °C
T2 construct: gene BZ2; expressed in E. coli from pET-28b-based plasmid, clarified lysate
T2 sequence (P50472 1-236): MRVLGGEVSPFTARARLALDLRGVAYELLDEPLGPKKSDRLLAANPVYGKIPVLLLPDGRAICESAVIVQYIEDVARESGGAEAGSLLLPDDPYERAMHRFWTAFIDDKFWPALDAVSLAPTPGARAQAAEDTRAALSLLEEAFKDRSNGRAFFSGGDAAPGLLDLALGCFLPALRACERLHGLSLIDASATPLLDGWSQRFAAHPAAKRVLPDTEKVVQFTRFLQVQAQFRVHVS

PhAN9 = biological target: T3, PhAN9 (Petunia x hybrida, UniProt O24261); test: as above; type: biochemical; conditions: 1 mM CDNB, 1 mM GSH, 50 mM Tris pH 7.5, 30 °C
T3 construct: expressed in E. coli from pET-28b-based plasmid, clarified lysate
T3 sequence (O24261 1-232): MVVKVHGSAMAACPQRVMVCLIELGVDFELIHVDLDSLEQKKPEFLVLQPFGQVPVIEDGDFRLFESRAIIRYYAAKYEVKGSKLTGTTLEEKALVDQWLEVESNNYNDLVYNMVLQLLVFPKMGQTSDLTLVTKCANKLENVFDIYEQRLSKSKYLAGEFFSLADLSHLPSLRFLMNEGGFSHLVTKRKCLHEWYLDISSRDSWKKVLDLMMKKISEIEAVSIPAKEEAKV

AtGSTF2 = biological target: T4, AtGSTF2 (Arabidopsis thaliana, UniProt P46422); test: as above; type: biochemical; conditions: 1 mM CDNB, 1 mM GSH, 50 mM Tris pH 7.5, 30 °C
T4 construct: gene GSTF2; expressed in E. coli from pET-28b-based plasmid, clarified lysate
T4 sequence (P46422 1-212): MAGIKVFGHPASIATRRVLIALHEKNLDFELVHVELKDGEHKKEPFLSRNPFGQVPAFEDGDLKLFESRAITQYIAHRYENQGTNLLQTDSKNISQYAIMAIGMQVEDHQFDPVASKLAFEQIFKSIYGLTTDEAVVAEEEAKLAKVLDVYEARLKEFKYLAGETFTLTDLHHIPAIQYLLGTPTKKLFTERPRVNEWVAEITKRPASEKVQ

AtTT19 [2] = biological target: T1, AtTT19; test: as above; type: biochemical; conditions: 1 mM CDNB, 1 mM GSH, 50 mM Tris pH 7.5, 30 °C
VvGST2 = biological target: T5, VvGST2 (Vitis vinifera, UniProt A0T2X7); test: as above; type: biochemical; conditions: 1 mM CDNB, 1 mM GSH, 50 mM Tris pH 7.5, 30 °C
T5 construct: gene GST2; expressed in E. coli from pET-28b-based plasmid, clarified lysate
T5 sequence (A0T2X7 1-214): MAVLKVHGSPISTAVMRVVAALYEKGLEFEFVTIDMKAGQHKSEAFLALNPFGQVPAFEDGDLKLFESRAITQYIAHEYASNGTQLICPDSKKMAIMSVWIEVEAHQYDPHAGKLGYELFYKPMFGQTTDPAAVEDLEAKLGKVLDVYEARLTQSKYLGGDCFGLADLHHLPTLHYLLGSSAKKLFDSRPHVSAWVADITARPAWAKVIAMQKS

PtGSTF8 = biological target: T6, PtGSTF8 (Populus trichocarpa, UniProt B9MWW0); test: X-ray crystal structure, […] Å; type: binding; conditions: ternary complex with GSH; H-site; substrate analogue
T6 construct: gene POPTR_017G138800; full length, expressed in E. coli from pET-28b-based pANT35, GSTrap purified, apo (GSH removed with DTT)
T6 sequence (B9MWW0 1-214): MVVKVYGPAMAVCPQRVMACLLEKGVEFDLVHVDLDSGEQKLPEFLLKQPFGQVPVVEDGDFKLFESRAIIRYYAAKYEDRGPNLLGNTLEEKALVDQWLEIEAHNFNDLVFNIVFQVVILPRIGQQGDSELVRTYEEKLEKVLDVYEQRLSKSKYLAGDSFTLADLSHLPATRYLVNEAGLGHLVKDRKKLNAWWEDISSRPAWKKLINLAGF

[3] = substrate: Oc1cc(O)c2c(c1)O[C@H](c1ccc(O)c(O)c1)C(O)(O)[C@H]2O; test: cyanidin formation at A580nm, 96-well plate, Michaelis-Menten; type: biochemical, Populus trichocarpa; conditions: GSH cofactor, 100 mM MOPSO pH 6.2, 30 °C, ascorbate, Fe(II), ultrafiltered substrate, apparent

Oc1cc(O)c2c(c1)O[C@H](c1ccc(O)c(O)c1)C(O)(O)[C@H]2O [compound 4]
cyanidin formation by clarified E. coli lysate expressing the GST (AtTT19 [1]): arGSTs from maize (ZmBZ2), arabidopsis (AtTT19) and grapevine (VvGST4)

O=[N+]([O-])c1ccc(Cl)c([N+](=O)[O-])c1 [compound 5, 1-chloro-2,4-dinitrobenzene]
GSH-transferase assay, A340nm, clarified E. coli lysate (ZmBZ2): all investigated GSTs were confirmed to be solubly and functionally produced | GSH-transferase assay, A340nm, clarified E. coli lysate (PhAN9): all investigated GSTs were confirmed to be solubly and functionally produced | GSH-transferase assay, A340nm, clarified E. coli lysate (AtGSTF2): all investigated GSTs were confirmed to be solubly and functionally produced | GSH-transferase assay, A340nm, clarified E. coli lysate (AtTT19 [2]): all investigated GSTs were confirmed to be solubly and functionally produced | GSH-transferase assay, A340nm, clarified E. coli lysate (VvGST2): all investigated GSTs were confirmed to be solubly and functionally produced

Oc1cc(O)c2c(c1)O[C@@H](c1ccc(O)c(O)c1)[C@H](O)C2 [compound 12, (−)-catechin]
X-ray crystal structure, 1.09 Å (PtGSTF8): crystal structure of PtGSTF8 as a ternary complex with GSH and the substrate analogue (−)-catechin

B1: PtGSTF8 (Populus trichocarpa) (protein)
chain: MVVKVYGPAMAVCPQRVMACLLEKGVEFDLVHVDLDSGEQKLPEFLLKQPFGQVPVVEDGDFKLFESRAIIRYYAAKYEDRGPNLLGNTLEEKALVDQWLEIEAHNFNDLVFNIVFQVVILPRIGQQGDSELVRTYEEKLEKVLDVYEQRLSKSKYLAGDSFTLADLSHLPATRYLVNEAGLGHLVKDRKKLNAWWEDISSRPAWKKLINLAGF
notes: full length, expressed in E. coli from pET-28b-based pANT35, GSTrap purified, apo (GSH removed with DTT)
Km [3]: 147 ± 8 µM | kcat [3]: 0.118 s⁻¹
